Like-named read-outs stand apart in the source and are kept apart here.
Assay: Plasma pharmacokinetics of pamiparib (LC-MS/MS, non-compartmental)
Design: species or system human
Conditions: in vivo; for AUC(0-inf): AUC0-inf; for Vd/F: Vz/F
Experimental: Patients in the dose-escalation phase received a single oral dose of pamiparib on day 1 of cycle 1 to collect samples for single-dose PK assessment over 48 h, followed by continuous daily doses (BID and QD) starting on day 3 of cycle 1 as a 21-day period of repeated drug administration (days 3–23), and then continued every 21-day cycle thereafter until disease progression, toxicity, or patient withdrawal. Eight BID dose levels (2.5, 5, 10, 20, 40, 60, 80, 120 mg) were administered (Fig. 1). After completion of BID dose-escalation, alternative dosing regimens of 120 and 160 mg QD were selected for exploration based on the total daily dose equivalent to the RP2D (60 mg BID) and MTD (80 mg BID), respectively. The QD dosing regimen was added as an amendment to the protocol with the purpose of exploring the feasibility of a more convenient regimen. During the dose-expansion phase, patients received pamiparib 60 mg BID (RP2D from BID dose-escalation phase) continuously from day 1 of cycle 1.
Pamiparib in plasma was measured using a validated liquid chromatography-tandem–mass spectrometry assay with a lower limit of quantification of 1.0 ng/mL. The collection schedule for blood samples used to assess the PK profile is presented in the Supplemental Appendix. Summary PK parameters, including area under the concentration-time curve from time 0 to 9 h (AUC0-9) or infinity (AUC0-inf), maximal plasma concentration (Cmax) and time to maximal plasma concentration (Tmax), were estimated. The pharmacodynamic (PD) activity of pamiparib was explored through the evaluation of poly(ADP-ribose [PAR]) formation in peripheral blood mononuclear cells (PBMCs) after pamiparib administration. The schedule for blood sample collection (PK and PBMCs) and additional assessment information for PAR levels in PBMCs and pharmacodynamic activity is presented in the Supplemental Appendix. Antitumor activity was assessed by radiographic imaging (computed tomography or magnetic resonance imaging) during screening, within 28 days of first pamiparib dose, every 6 weeks in the first 12 months and every 9 weeks thereafter.
Descriptive statistics were used to summarise all study data (see Supplemental Appendix). Progression-free survival (PFS) and event-free rates were estimated using the Kaplan–Meier method along with the corresponding 95% CI. Pharmacokinetic parameters were derived using standard non-compartmental methods with Phoenix WinNonlin Version 6.4 or higher (Pharsight Corp., Mountain View, California).
The PK profile of pamiparib was assessed based on blood samples collected at predose and 0.5, 1, 2, 4, 6, 9, 24, and 48 hours postdose on Days 1-3 and then at predose and 0.5, 1, 2, 4, 6, and 9 hours postdose on Day 17 of Cycle 1 in Phase 1A. Sparse PK samples were collected in phase 1B Part A. The food effect on the PK of pamiparib was assessed based on blood samples collected at predose and 0.5, 1, 2, 4, 7, 24, and 48 hours postdose on Day 1 and Day 6 of Cycle 1 in phase 1B Part B.

[1] = human, 2.5 mg, Single Dose (Cycle 1 Day 1)
[2] = human, 5 mg, Single Dose (Cycle 1 Day 1)
[3] = human, 10 mg, Single Dose (Cycle 1 Day 1)
[4] = human, 20 mg, Single Dose (Cycle 1 Day 1)
[5] = human, 40 mg, Single Dose (Cycle 1 Day 1)
[6] = human, 60 mg, Single Dose (Cycle 1 Day 1)
[7] = human, 80 mg, Single Dose (Cycle 1 Day 1)
[8] = human, 120 mg, Single Dose (Cycle 1 Day 1)
[9] = human, 160 mg, Single Dose (Cycle 1 Day 1)

Question: Which results are given for `C[C@]12CCCN1CC1=NNC(=O)c3cc(F)cc4[nH]c2c1c34` [pamiparib]?
Answer: Dose proportionality, AUC0-inf (h*ng/mL): Intercept (95% CI) (human): 5.97 (5.36-6.57); Dose proportionality, AUC0-inf (h*ng/mL): Slope (95% CI) (human): 1.04 (0.88-1.20); Dose proportionality, Cmax (ng/mL): Intercept (95% CI) (human): 3.66 (3.34-3.99); Dose proportionality, Cmax (ng/mL): Slope (95% CI) (human): 0.96 (0.87-1.04); Accumulation Ratio, AUC0-9 (human, 2.5 mg): 2.42; Accumulation Ratio, Cmax (human, 2.5 mg): 2.44; CL/F, Single Dose (Cycle 1 Day 1) (human, 2.5 mg): 4265.3 (34.8) mL/hr; t1/2, Single Dose (Cycle 1 Day 1) (human, 2.5 mg): 12.03 (7.08, 33.87) hr; AUC(0-t) (human, 2.5 mg, AUC0-9, Single Dose (Cycle 1 Day 1)): 385 ng·h/mL; AUC(0-t) (human, 2.5 mg, AUC0-9, Steady State (Cycle 1 Day 17)): 931 ng·h/mL; AUC(0-inf) [1]: 586 ng·h/mL; Cmax [1]: 74.5 ng/mL; Cmax (human, 2.5 mg, Steady State (Cycle 1 Day 17)): 182 ng/mL; Vd/F [1]: 52.4 L; Accumulation Ratio, AUC0-9 (human, 5 mg): 1.93; Accumulation Ratio, Cmax (human, 5 mg): 2.09; CL/F, Single Dose (Cycle 1 Day 1) (human, 5 mg): 2056.9 (49.5) mL/hr; AUC(0-t) (human, 5 mg, AUC0-9, Single Dose (Cycle 1 Day 1)): 1100 ng·h/mL; AUC(0-t) (human, 5 mg, AUC0-9, Steady State (Cycle 1 Day 17)): 2120 ng·h/mL; AUC(0-inf) [2]: 2430 ng·h/mL; Cmax [2]: 193 ng/mL; Cmax (human, 5 mg, Steady State (Cycle 1 Day 17)): 404 ng/mL; Tmax (human, 5 mg, Tmax, Steady State (Cycle 1 Day 17)): 0.53 h; Vd/F [2]: 32.7 L; half-life (human, 5 mg, t1/2, Single Dose (Cycle 1 Day 1)): 11 h; Accumulation Ratio, AUC0-9 (human, 10 mg): 1.68; Accumulation Ratio, Cmax (human, 10 mg): 1.59; CL/F, Single Dose (Cycle 1 Day 1) (human, 10 mg): 1359.2 (35.9) mL/hr; AUC(0-t) (human, 10 mg, AUC0-9, Single Dose (Cycle 1 Day 1)): 2580 ng·h/mL; AUC(0-t) (human, 10 mg, AUC0-9, Steady State (Cycle 1 Day 17)): 4330 ng·h/mL; AUC(0-inf) [3]: 7360 ng·h/mL; Cmax [3]: 412 ng/mL; Cmax (human, 10 mg, Steady State (Cycle 1 Day 17)): 657 ng/mL; Tmax (human, 10 mg, Tmax, Steady State (Cycle 1 Day 17)): 1.05 h; Vd/F [3]: 27.6 L; half-life (human, 10 mg, t1/2, Single Dose (Cycle 1 Day 1)): 14.1 h; AUC0-9, Single Dose (Cycle 1 Day 1) (human, 20 mg): 4134.9 (29.9) ng/ml*hr; Accumulation Ratio, AUC0-9 (human, 20 mg): 1.82; Accumulation Ratio, Cmax (human, 20 mg): 1.62; CL/F, Single Dose (Cycle 1 Day 1) (human, 20 mg): 2550.4 (58.7) mL/hr; Cmax, Steady State (Cycle 1 Day 17) (human, 20 mg): 1267.6 (19.9) ng/ml; AUC(0-t) (human, 20 mg, AUC0-9, Steady State (Cycle 1 Day 17)): 7510 ng·h/mL; AUC(0-inf) [4]: 7840 ng·h/mL; Cmax [4]: 783 ng/mL; Tmax (human, 20 mg, Tmax, Single Dose (Cycle 1 Day 1)): 0.53 h; Vd/F [4]: 31.4 L; half-life (human, 20 mg, t1/2, Single Dose (Cycle 1 Day 1)): 8.53 h; Accumulation Ratio, AUC0-9 (human, 40 mg): 1.86; Accumulation Ratio, Cmax (human, 40 mg): 1.60; CL/F, Single Dose (Cycle 1 Day 1) (human, 40 mg): 1826.6 (85.8) mL/hr; t1/2, Single Dose (Cycle 1 Day 1) (human, 40 mg): 11.76 (6.24, 24.37) hr; AUC(0-t) (human, 40 mg, AUC0-9, Single Dose (Cycle 1 Day 1)): 8950 ng·h/mL; AUC(0-t) (human, 40 mg, AUC0-9, Steady State (Cycle 1 Day 17)): 18300 ng·h/mL; AUC(0-inf) [5]: 21900 ng·h/mL; Cmax [5]: 1750 ng/mL; Cmax (human, 40 mg, Steady State (Cycle 1 Day 17)): 2940 ng/mL; Tmax (human, 40 mg, Tmax, Steady State (Cycle 1 Day 17)): 1.5 h; Vd/F [5]: 31 L; AUC0-9, Single Dose (Cycle 1 Day 1) (human, 60 mg): 10403.7 (29.2) ng/ml*hr; CL/F, Single Dose (Cycle 1 Day 1) (human, 60 mg): 1874.7 (55.4) mL/hr; Geometric mean half-life (human, 60 mg): 13.5 h; t1/2, Single Dose (Cycle 1 Day 1) (human, 60 mg): 13.50 (7.14, 24.61) hr; AUC(0-t) (human, 60 mg, AUC0-9, Steady State (Cycle 1 Day 17)): 25200 ng·h/mL; AUC(0-inf) [6]: 32000 ng·h/mL; Cmax [6]: 1880 ng/mL; Cmax (human, 60 mg, Steady State (Cycle 1 Day 17)): 3830 ng/mL; Vd/F [6]: 36.5 L; Accumulation Ratio, AUC0-9 (human, 80 mg): 2.07; Accumulation Ratio, Cmax (human, 80 mg): 1.96; CL/F, Single Dose (Cycle 1 Day 1) (human, 80 mg): 2786.6 (56.0) mL/hr; Cmax, Single Dose (Cycle 1 Day 1) (human, 80 mg): 2317.8 (43.0) ng/ml; AUC(0-t) (human, 80 mg, AUC0-9, Single Dose (Cycle 1 Day 1)): 13200 ng·h/mL; AUC(0-t) (human, 80 mg, AUC0-9, Steady State (Cycle 1 Day 17)): 25300 ng·h/mL; AUC(0-inf) [7]: 28700 ng·h/mL; Cmax (human, 80 mg, Steady State (Cycle 1 Day 17)): 4350 ng/mL; Tmax (human, 80 mg, Tmax, Single Dose (Cycle 1 Day 1)): 1.98 h; Tmax (human, 80 mg, Tmax, Steady State (Cycle 1 Day 17)): 1.08 h; Vd/F [7]: 38.5 L; half-life (human, 80 mg, t1/2, Single Dose (Cycle 1 Day 1)): 9.58 h; AUC0-9, Steady State (Cycle 1 Day 17) (human, 120 mg): 36558.4 (32.4) ng/ml*hr; AUC0-inf, Single Dose (Cycle 1 Day 1) (human, 120 mg): 68952.9 (43.3) ng/ml*hr; Cmax, Single Dose (Cycle 1 Day 1) (human, 120 mg): 3752.8 (41.1) ng/ml; Cmax, Steady State (Cycle 1 Day 17) (human, 120 mg): 6059.1 (27.7) ng/ml; Vz/F, Single Dose (Cycle 1 Day 1) (human, 120 mg): 31373.9 (13.9) mL; t1/2, Single Dose (Cycle 1 Day 1) (human, 120 mg): 14.29 (9.83, 30.30) hr; AUC(0-t) (human, 120 mg, AUC0-9, Single Dose (Cycle 1 Day 1)): 21100 ng·h/mL; AUC(0-t) (human, 120 mg, AUC0-9, Steady State (Cycle 1 Day 17)): 26900 ng·h/mL; AUC(0-inf) [8]: 52000 ng·h/mL; Cmax [8]: 3590 ng/mL; Cmax (human, 120 mg, Steady State (Cycle 1 Day 17)): 4530 ng/mL; Tmax (human, 120 mg, Tmax, Single Dose (Cycle 1 Day 1)): 1.95 h; Vd/F [8]: 36.3 L; half-life (human, 120 mg, t1/2, Single Dose (Cycle 1 Day 1)): 10.9 h; Accumulation Ratio, AUC0-9 (human, 160 mg): 1.47; Accumulation Ratio, Cmax (human, 160 mg): 1.27; CL/F, Single Dose (Cycle 1 Day 1) (human, 160 mg): 1569.1 (44.8) mL/hr; AUC(0-t) (human, 160 mg, AUC0-9, Single Dose (Cycle 1 Day 1)): 31800 ng·h/mL; AUC(0-t) (human, 160 mg, AUC0-9, Steady State (Cycle 1 Day 17)): 45300 ng·h/mL; AUC(0-inf) [9]: 102000 ng·h/mL; Cmax [9]: 5340 ng/mL; Cmax (human, 160 mg, Steady State (Cycle 1 Day 17)): 6870 ng/mL; Vd/F [9]: 34.5 L; half-life (human, 160 mg, t1/2, Single Dose (Cycle 1 Day 1)): 15.2 h; half-life (human, Mean terminal half-life): ~13 h; Tmax (human, Median Tmax): 1 to 2 h; Tmax (human, BID 2.5 mg, N 4, read-out: Tmax, Steady State (Cycle 1 Day 17)): 0.54 h; AUC0-9 (human, QD 120 mg, N 8, read-out: AUC0-9, Single Dose (Cycle 1 Day 1)): 21700 ng·h/mL; Exposure (Cmax and AUC0-inf) versus dose: dose-proportional increase
